Here are results for four compounds from patent US9694050B2, “THY1 (CD90) as a novel therapy to control adipose tissue accumulation” (University of Rochester, priority 2012, dated 2017).

The subject of assay [1] is human pre-adipocyte fibroblasts. Nature of the assay: Adipogenesis of human pre-adipocyte fibroblasts in adipogenic medium (Thy1 siRNA, SU6656). Format: cell-based. As to the method: 3T3-L1 cells or primary fibroblasts were cultured to confluence before addition of the adipogenic medium. Cells were treated with an adipogenic medium containing 0.5 mM 3-isobutyl-1-methylxanthine, 0.25 μM dexamethasone, and 1 μg/ml insulin (all three from Sigma Aldrich, St. Louis, Mo.), 2 μM rosiglitazone (Cayman) for two days. After two days medium was replaced with dexamethasone, insulin and rosiglitazone for another 5-8 days. Media was replaced every 2 days through the duration of the experiment. After differentiation cells were analyzed for lipid accumulation and adipogenesis by Oil-red-O (Sigma Aldrich, St. Louis, Mo.) staining and AdipoRed (Cayman) staining as described previously. Lehmann et al., “Novel Anti-adipogenic Activity Produced by Human Fibroblasts,” Am J Physiol Cell Physiol 299(3):C672-81 (2010), which is hereby incorporated by reference in its entirety.
5-8×10^4 or 1×10^5 cells were seeded into 24 well or 6 well cell culture plates (Corning) and subsequently were transiently transfected with 50-200 nM of siRNA (Ambion) using Lipofectamine 2000 (Invitrogen) as the transfection reagent and following the manufacture's protocol. The cells were incubated with siRNA specific for Thy1 specific or a corresponding non-specific control siRNA for 3-4 days before the cells were subjected to adipogenic differentiation experiments as described above. At the start of the adipogenic differentiation experiment, the cells were again transiently transfected with 100 nM Thy1-specific or control siRNA.
Thy1 specific or control siRNA was introduced into human pre-adipocyte fibroblasts using Lipofectamine 2000. Fibroblasts were then treated with an adipogenic medium and adipogenesis was measured by visual inspection of lipid droplets, FABP4 expression and lipid accumulation. Total Thy1 protein expression and Thy1 surface expression were analyzed by western blot and flow cytometry, respectively. […] Cell images were captured to show the presence of lipid droplets in fibroblasts treated with adipogenic medium, and are shown in FIG. 12B. […]

The test system of assay [2] is Thy1. The assay is described as follows: Thy1 expression in hMSCs treated with obesogens (qPCR, flow cytometry). The format is cell-based, human. As to the method: In particular, hMSCs were induced to adipocytes with a rosiglitazone cocktail (adipogenic) or cocktail containing the putative obesogens BPA (1 μM), TBBPA (5 μM), or TBT (100 nM). […] The obesogen doses selected are based on literature and represent concentrations proposed to be found in human tissues. Roos et al., “Circulating Levels of Persistent Organic Pollutants in Relation to Visceral and Subcutaneous Adipose Tissue by Abdominal MRI,” Obesity (Silver Spring) (2012) and Antizar-Ladislao, B, “Environmental Levels, Toxicity and Human Exposure to Tributyltin (TBT)-Contaminated Marine Environment. A Review,” Environ Int 34(2):292-308 (2008), each of which is hereby incorporated by reference in its entirety. As noted above, the cells were cultured in adipogenic medium containing rosiglitazone, a PPARγ ligand that promotes adipogenesis and obesity, and the noted putative obesogens.
qPCR analysis of the mRNA levels of Thy1 and the adipogenic marker FABP4 was conducted. […] The same samples as in FIG. 4A were used to measure Thy1 mRNA levels by qPCR. […] Thy1 and FABP4 levels were normalized to TBP mRNA levels (control gene).
hMSCs were also treated with vehicle (DMSO), 20 uM TBBPA, or 10 uM rosiglitazone for 72 hrs, harvested and stained with a fluorescent anti-Thy1 antibody for analysis of Thy1 by flow cytometry.
Background: Quantitative PCR measures a nucleic acid by following its amplification.

The test system of assay [3] is Thy1. The assay is described as follows: Thy1 expression in mouse MSCs cultured with obesogens (flow cytometry, western blotting). The format is cell-based. The conditions noted are these: 96 hrs; for Thy1, western blotting: concentrations in figure. Here is the method: Mouse MSCs were cultured with obesogens for 96 hrs, harvested, and analyzed for Thy1 expression by flow cytometry or western blotting.
Background: In flow cytometry, cells or beads pass a laser one at a time.

The subject of assay [4] is Erk1/2. Nature of the assay: Western blot for phospho-Erk1/2 in 3T3-L1 cells. Particulars: Thy1 expressed in 3T3-L1 cells. Format: cell-based, mouse. As to the method: 3T3-L1 cells infected with a control or Thy1-expressing lentivirus (LV) were treated with 10 nM insulin-like growth factor (IGF)-1 for 0, 5, or 10 minutes. Cells were treated as described, then whole cell lysates were harvested and analyzed by western blot for phospho-Erk1/2 and GAPDH expression (FIG. 18A). Western blot images were analyzed by densitometry and phospho-Erk1/2 levels were normalized to GAPDH to adjust for total protein variations (FIG. 18B).
PPARγ phosphorylation at serine 82 (S82) inhibits ligand binding and severely reduces its ability to promote adipogenesis. […] To investigate if Thy1 regulates the Erk pathway, Thy1 was expressed in 3T3-L1 cells and the activity of Erk1/2 (which corresponds to phospho-Erk) was monitored by western blotting (see FIGS. 18A and 18B). […]

Assay [5] can be described thus: Diet induced obesity in mice on a high fat diet, soluble Thy1 injected. Format: in vivo, mouse. Particulars: high fat diet (60% kcals from fat), minimum of 8 weeks, 0.2 or 0.4 mg/kg intravenous or subcutaneous. The text has this:
Milligram quantities of soluble Thy1 will be injected into mice receiving a high fat (60% kcals from fat) diet.
Mice fed a high fat diet and treated as in Table 2 will be weighed weekly for the duration of the experiment (minimum of 8 weeks). Following the study, mice will be sacked for fat depot quantification, histologic analysis and fat tissue will be analyzed by western blot for the adipogenic markers FABP4, C/EBPα, Fyn, and phospho-Fyn. Serum samples will also be acquired for analysis of Thy1, adiponectin and glucose levels.

The test system of assay [6] is Fyn. The assay is described as follows: Western blot for phospho-STAT5 (Fyn mediated phosphorylation). Format: cell-based, human. Particulars: Thy1 expression.
The subject of assay [7] is PPARγ. The assay is described as follows: Western blot for PPARγ protein in 3T3-L1 cells. The format is cell-based, mouse. Particulars: expression of Thy1 in 3T3-L1 preadipocyte fibroblasts. From the text: Orbital fibroblasts from two individual human donors were separated into Thy1^− and Thy1+ subsets. Cells were harvested and analyzed by western blotting for PPARγ and actin (loading control). […] In addition, 3T3-L1 cells were transduced with control or human Thy1− encoding lentiviral (Lv) particles.
To test how Thy1 affects PPARγ, it was first considered whether Thy1 would down-regulate the expression of PPARγ protein. However, two different strains of human TED orbital fibroblasts, sorted into Thy1+ or Thy1^− subsets, expressed similar levels of PPARγ (FIG. 15A). […] Thus, other ways that Thy1 could influence the function of PPARγ were considered, as described below.
A general note: Immunoblotting shows a protein as a band on a membrane.

In assay [8] the test system is human stem cells. Nature of the assay: Adipogenesis of human stem cells / preadipocytes given a proadipogenic cocktail. The format is cell-based. From the text: Thy1 (or Thy-1, also termed CD90) is an N-glycosylated, glycophosphatidylinositol (GPI)-anchored membrane protein that was originally identified as a surface marker on mouse T cells and thymocytes. Thy1 is a surface marker of unknown function that is expressed on some stem cells and some fibroblasts. While Thy1 was discovered more than 35 years ago, its molecular function remains a mystery. The inventors of the present application have discovered that Thy1 is more than a surface marker; rather, it can control the fate of cells by preventing adipogenesis. […] Similarly, deliberate genetic over-expression of Thy1 has the same effect, preventing cells from becoming adipocytes.

Where [9] appears, read: induced to differentiate into adipocytes.
The mark [10] stands for this setting: human and mouse mesenchymal stem cells.

As to `CN(C)S(=O)(=O)c1ccc2c(c1)/C(=C/c1cc3c([nH]1)CCCC3)C(=O)N2` [SU6656], the “adipogenic effect of Thy1 siRNA (FABP4 mRNA, lipid accumulation)” value in assay [1] (Thy1 siRNA followed by adipocyte induction) is reported as “ablated”. Further, in assay [1] (setting [9]), the “FABP4 protein expression, % of control, western blot” value is 30% and the “lipid accumulation, % of control” value came out at 55%.

On to `CC(C)(c1cc(Br)c(O)c(Br)c1)c1cc(Br)c(O)c(Br)c1` [TBBPA, tetrabromobisphenol-A], for which the Thy1 expression entry in assay [2] (MSCs treated with obesogens) is reported as “reduced”; in assay [2] (setting [10]), “dramatically reduced”. The “surface expression of Thy1, flow cytometry” value in assay [2] (hMSCs, 20 uM, 72 hrs, vs vehicle (DMSO)) is given as “decreased”. Moreover, the “Thy1 surface expression, Mean Fluorescent Intensity” value in assay [3] (5 μM) was “dramatic reduction”. Further, the “Thy1, western blotting” value in assay [3] is “reduction”.

For `CCC[CH2][Sn]([CH2]CCC)[CH2]CCC` [TBT, tributlytin], the Thy1 expression result is recorded as “reduced” in assay [2] (MSCs treated with obesogens) and “dramatically reduced” in assay [2] (setting [10]). In addition, the “Thy1, western blotting” value in assay [3] is reported as “reduction”.

For the compound “Thy1: N-glycosylated, GPI-anchored membrane protein; human Thy1 SEQ ID NO:1; soluble form lacks the GPI anchor”, in assay [4], the “increase of Erk1/2 phosphorylation compared to control 3T3-L1 cells” value is “greater than 3 fold”. Also, in assay [5], the fat accumulation result is given as “significantly less fat accumulation” and the weight gain result is “significantly less weight”. Moreover, the “phospho-STAT5 levels, western blotting” value in assay [6] is given as “reduces”. In assay [7], the PPARγ protein levels entry is given as “did not alter”. Besides, the “human stem cell adipogenesis” value in assay [8] was “blunts”. For the same compound, the becoming fat cells entry in assay [8] (human and mouse preadipocytes and primary human stem cells, proadipogenic cocktail containing a PPARγ ligand) is listed as “prevent”.
